According to paper PMC12378361, “Design and synthesis of photoswitchable desloratadine ligands for histamine H1 receptor photopharmacology” (RSC Medicinal Chemistry, 2025):
Where “and” joins values, the source holds several entries; their conditions need not be identical. Equal values may be shown once. Read-outs that look alike come from different tables or passages of the source.

Legend:
[1] = Thermal relaxation of PSScis states; conditions: for Approximate t1/2 (thermal relaxation of PSScis): HBSS buffer containing 50% DMSO; for thermal half-lives (approximated dark stability), order of magnitude in words: in buffer
Description: (§1) The photochemical properties of the photoswitchable ligands (Table 1, Fig. S2–S10) were first characterized by UV-vis absorption spectroscopy.
(§2) Experimental procedures – Photochemistry
(§3) equipped with a thermostated cell holder set at 20 °C. Fits of UV−vis spectroscopy data were generated
(§4) IlluminaIon for all photochemical experiments was executed using a Suter
(§5) instruments Lambda LS with a 300 W full-spectrum lamp connected to a Suter instruments Lambda
For photochemical analyses,
(§6) IlluminaIons for pharmacological experiments were performed in cylindrical clear glass vials with a
(§7) The typi cal di stance between l i ght source and vi al or cuvete was 2 cm.

[2] = UV-vis absorption spectroscopy; conditions: 25 μM in HBSS buffer containing 50% DMSO; for λmax cis: n–π* band; for λmax trans: π–π* band
Description: as §1, §2, §3, §4, §5
For photochemical analyses,
as §6, §7

[3] = Photostationary state by LC-MS at the isosbestic point; conditions: 10 mM in DMSO; for PSStrans (area% trans): after illumination of PSScis state with 434 ± 9 nm; for PSScis (area% cis): after illumination of trans isomer with 360 ± 20 nm
Description: as §1, §2, §3, §4, §5
For photochemical analyses,
as §6, §7

human histamine H1R = molecular target: T1, human histamine H1R (Homo sapiens, UniProt P35367); test: Competition radioligand binding with [3H]mepyramine on homogenates of HEK293T cells expressing HA-H1R; conditions: for pKi shift: pKi PSScis – pKi trans (log unit)
T1 construct: expressed in transfected cells; host or cells: HEK293T cells, transient expression; cell homogenates
Description: For 10c and 12c, continuous illumination at 365 nm was used to counteract the short half-lives of their PSScis states, while for the other compounds PSScis states were obtained by pre-illumination with 360 nm.
Experimental methods – Pharmacology
The homogenates were stored at −20 °C. […] A]erwards, the cell homogenates were incubated with the respecIve (photo)ligands in […]
black 96 well plates (Greiner). During the incubaIon Ime, 10c and 12c were conInuousl y i l l umi nated with 365 nm (10 V, 2 mW, constant mode) light (96 LED array plates, LAD-1, LEDA-x, Bio Research Center Co., Ltd. Izumi, Japan) to account for thei r short-lived cis isomers. A]er a 4-hour incubaIon Ime, the binding reacIon was stopped using a harvester (PerkinElmer). Upon mulIple wa s h ste ps through a polyethyleneimine-coated GF/C ﬁlter plate (PerkinElmer) receptor-bound radioligand was captured by the GF/C ﬁlter plate. A]er drying the GF/C plate, the ﬁlter-bound radioligand was quanIﬁed by scinIllaIon counIng using MicroScint-O and the Wallac MicroBeta counter (PerkinElmer). […]

hH1R = conditions: cited from earlier work; for pKi hH1R PSScis: PSScis state; for pKi hH1R trans: trans isomer
gpH1R = tested on: gpH1R; design: method as in PMID 30628180; conditions: cited from earlier work; for pA2 gpH1R PSScis: PSScis state; for pA2 gpH1R trans: trans isomer
[4] = Arrhenius extrapolation to 20 °C
[5] = PSScis state obtained by pre-illumination with 360 nm, mean ± SEM, n = 3, read-out: pKi PSScis (converted)
[6] = trans isomer (8: template, not photoswitchable), [3H]mepyramine, mean ± SEM, n = 3, read-out: pKi trans (converted)
[7] = continuous illumination at 365 nm during 4 h incubation at 25 °C, mean ± SEM, n = 3, read-out: pKi PSScis (converted)
[8] = trans isomer (8: template, not photoswitchable), [3H]mepyramine, mean ± SEM, n = 3

T1 sequence (P35367 whole entry): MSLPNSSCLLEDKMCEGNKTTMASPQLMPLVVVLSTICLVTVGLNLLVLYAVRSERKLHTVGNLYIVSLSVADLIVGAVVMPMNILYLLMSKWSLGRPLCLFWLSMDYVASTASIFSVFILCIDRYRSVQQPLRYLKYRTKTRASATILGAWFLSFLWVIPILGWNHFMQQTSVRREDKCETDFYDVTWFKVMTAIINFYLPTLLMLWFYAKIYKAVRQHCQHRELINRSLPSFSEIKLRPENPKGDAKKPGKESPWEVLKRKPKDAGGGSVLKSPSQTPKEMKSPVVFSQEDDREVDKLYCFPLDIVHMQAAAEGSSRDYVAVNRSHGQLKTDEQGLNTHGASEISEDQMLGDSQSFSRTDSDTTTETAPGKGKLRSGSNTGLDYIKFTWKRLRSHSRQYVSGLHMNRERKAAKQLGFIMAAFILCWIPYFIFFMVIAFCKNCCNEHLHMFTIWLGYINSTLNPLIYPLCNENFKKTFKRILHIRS

Approximate t1/2 (thermal relaxation of PSScis) [1, 4] [days] | thermal half-lives (approximated dark stability), order of magnitude in words [1] | λmax cis [2] [nm] | λmax trans [2] [nm] | PSStrans (area% trans) [3] [area%] | PSScis (area% cis) [3] [area%] | Ki (human histamine H1R; [5]) [nM] | pKi shift (human histamine H1R) | Ki (human histamine H1R; [6]) | Compound | other results
78 | months | 429 | 340 | 79 | 97 | 251 | −0.2 | ~158 nM and 158 nM | Clc1cc2c(cc1/N=N/c1ccccc1)C(=C1CCNCC1)c1ncccc1CC2 [11a] | 
5 | days | 435 | 338 | 80 | 91 | 501 | −0.6 | 126 nM | c1ccc(/N=N/c2ccc3c(c2)CCc2cccnc2C3=C2CCNCC2)cc1 [11b] | 
211 | months | 419 |  | 82 | 67 | > 1000 |  | > 1000 nM | Clc1ccc2c(c1/N=N/c1ccccc1)CCc1cccnc1C2=C1CCNCC1 [11c] | pKi PSScis (human histamine H1R; PSScis state obtained by pre-illumination with 360 nm, mean ± SEM, n = 3): <6.0; pKi trans (human histamine H1R; [8]): <6.0
19 | days | 432 | 327 | 83 | 93 | 3.16 | −0.1 | 2.51 nM | Clc1ccc2c(c1)CCc1cccnc1C2=C1CCN(Cc2ccc(/N=N/c3ccccc3)cc2)CC1 [12a] | 
198 | months | 423 | 325 | 81 | 91 | 6.31 | −0.1 | 5.01 nM | Clc1ccc2c(c1)CCc1cccnc1C2=C1CCN(Cc2cccc(/N=N/c3ccccc3)c2)CC1 [12b] | 
 | seconds |  | 329 |  |  |  | −0.1 | 3.98 nM | Clc1ccc2c(c1)CCc1cccnc1C2=C1CCN(Cc2ccccc2/N=N/c2ccccc2)CC1 [12c] | Approximate t1/2 (thermal relaxation of PSScis) ([1]; 20 °C): 0.000521 days; Ki (human histamine H1R; [7]): 5.01 nM

The remaining lines, values behind:

Compound | Approximate t1/2 (thermal relaxation of PSScis) [1, 4] [days] | thermal half-lives (approximated dark stability), order of magnitude in words [1] | λmax cis [2] [nm] | λmax trans [2] [nm] | PSStrans (area% trans) [3] [area%] | PSScis (area% cis) [3] [area%] | Ki (human histamine H1R; [5]) [nM] | pKi shift (human histamine H1R) | Ki (human histamine H1R; [6]) | other results
Clc1ccc2c(c1)CCc1ccc(/N=N/c3ccccc3)nc1C2=C1CCNCC1 [10a] | 38 | months | 429 | 332 | 85 | 91 | 15.8 | −0.5 | 5.01 nM | Ki (human histamine H1R; trans isomer, read-out: Ki trans): 2 nM; fold higher H1R affinity compared to 11b (human histamine H1R; trans isomers): approximately 25 fold; light-induced affinity shift (human histamine H1R; trans vs PSScis): 3.2 fold
Clc1ccc2c(c1)CCc1cc(/N=N/c3ccccc3)cnc1C2=C1CCNCC1 [10b] | 31 | months | 430 | 335 | 79 | 87 | 3.98 | −0.3 | 2 nM | 
Clc1ccc2c(c1)CCc1c(/N=N/c3ccccc3)ccnc1C2=C1CCNCC1 [10c] |  | minutes | 419 | 319 |  |  |  |  | 158 nM | Approximate t1/2 (thermal relaxation of PSScis) ([1]; 20 °C): 0.0104 days; Ki (human histamine H1R; [7]): 158 nM; pKi trans (human histamine H1R; [8]): 6.8 ± 0.0
CN1CCN(C2=Nc3ccc(Cl)cc3Oc3ccccc32)CC1 [compound 1] |  |  |  |  |  |  |  |  |  | pKi hH1R (hH1R): 8.1 ± 0.1
CN1CCN(/C(=N\c2ccc(/N=N/c3ccc(S(=O)(=O)O)cc3)cc2)c2ccc(Cl)cc2)CC1 [compound 2] |  |  |  |  |  |  |  |  |  | pA2 gpH1R PSScis (gpH1R): 4.7 ± 0.1; pA2 gpH1R trans (gpH1R): 5.9 ± 0.1
CN1CCN(/C(=N\c2ccc(/N=N/c3ccc([N+](=O)[O-])cc3)cc2)c2ccc(Cl)cc2)CC1 [compound 3] |  |  |  |  |  |  |  |  |  | pA2 gpH1R PSScis (gpH1R): 4.5 ± 0.1; pA2 gpH1R trans (gpH1R): 6.2 ± 0.1
CN1CCC(Oc2ccccc2Cc2ccccc2)CC1 [compound 4] |  |  |  |  |  |  |  |  |  | pKi hH1R (hH1R): 8.7 ± 0.1
CN1CCC(Oc2cccc(/N=N/c3ccccc3)c2)CC1 [compound 5] |  |  |  |  |  |  |  |  |  | pKi hH1R PSScis (hH1R): < 5.0; pKi hH1R trans (hH1R): < 5.0
CN1CCC(Oc2ccccc2/N=N/c2ccccc2)CC1 [compound 6] |  |  |  |  |  |  |  |  |  | pKi hH1R PSScis (hH1R): 5.1; pKi hH1R trans (hH1R): 5.2
CCOC(=O)N1CCC(=C2c3ccc(Cl)cc3CCc3cccnc32)CC1 [compound 7, loratadine] |  |  |  |  |  |  |  |  |  | pKi hH1R (hH1R): 6.8 ± 0.1
Cc1cncc(CN2CCC(=C3c4ccc(Cl)cc4CCc4cccnc43)CC2)c1 [compound 9, rupatadine] |  |  |  |  |  |  |  |  |  | pKi hH1R (hH1R): 8.4
